As usually defined, the EC50 is the concentration that produces a half-maximal response.

From ChEMBL document CHEMBL1127232, “Synthesis and vasorelaxant activity of N-imino-2-(benzopyran-4-yl)pyridine K+ channel openers” (Bioorg Med Chem Lett, 1994) come the findings set out here.

Molecules are shown by their SMILES.

The species entered for experiment [1] is Rattus norvegicus. The experiment in a line: Intrinsic activity in rat aorta was determined. In kind it is functional.
Experiment [2] is filed under the species Rattus norvegicus. The experiment is described as follows: Negative logarithm of the molar concentration required to relax rat aorta precontracted with 30 mM KCL by 50% of intrinsic activity. In kind it is functional.

Regarding `N#Cc1ccc2c(c1)C(c1cccc[n+]1[O-])=CC(CF)(CF)O2`, in the experiment listed under Rattus norvegicus [1], the Intrinsic activity amounted to 71.1%. For the same compound, a half-maximal response in the experiment filed under Rattus norvegicus [2] (EC50) required 16.6 nM.
For `O=[N+]([O-])c1ccc2c(c1)C(c1cccc[n+]1[O-])=CC(CF)(CF)O2`, in that order: 66.3% and 1.74 nM.
For `O=C([N-][n+]1ccccc1C1=CC(CF)(CF)Oc2ccc([N+](=O)[O-])cc21)Nc1ccccc1`, in that order: 89.5% and 9120 nM.
Taken in the same sequence, the figures for `N#C[N-][n+]1ccccc1C1=CC(CF)(CF)Oc2ccc(C(F)(F)F)cc21` were 62.3% and 9.55 nM.
In the experiment filed under Rattus norvegicus [1], `CC1(C)C=C(c2cccc[n+]2[N-]C#N)c2cc(C#N)ccc2O1` showed an Intrinsic activity of 63.2%. For the same compound, in the experiment filed under Rattus norvegicus [2], the EC50 is 97.7 nM.
`N#C[N-][n+]1ccccc1C1=CC(CF)(CF)Oc2ccc([N+](=O)[O-])cc21` yielded an Intrinsic activity in the experiment filed under Rattus norvegicus [1] of 72.7%. Besides, the EC50 in the experiment listed under Rattus norvegicus [2] is 4.57 nM.
The compound `O=[N+]([O-])[N-][n+]1ccccc1C1=CC(CF)(CF)Oc2ccc([N+](=O)[O-])cc21` returned an Intrinsic activity in the experiment filed under Rattus norvegicus [1] of 98.5%. The compound also showed a 50% effective concentration (EC50) in the experiment filed under Rattus norvegicus [2] of 1000 nM.
Take `O=C([N-][n+]1ccccc1C1=CC(CF)(CF)Oc2ccc([N+](=O)[O-])cc21)c1ccccc1`: in the experiment filed under Rattus norvegicus [2], the EC50 was above 10000 nM.
For the compound `N#C[N-][n+]1ccccc1C1=CC(CF)(CF)Oc2ccc(C(F)(F)C(F)(F)F)cc21`, in the experiment filed under Rattus norvegicus [1], the Intrinsic activity came out at 71.9%. This compound gave an EC50 in the experiment filed under Rattus norvegicus [2] of 2.95 nM.
Take `N#C[N-][n+]1ccccc1C1=CC(CF)(CF)Oc2ccc(C(F)(F)C(F)(F)C(F)(F)F)cc21`: the Intrinsic activity in the experiment listed under Rattus norvegicus [1] is 74.6%. The same compound had a concentration giving a half-maximal response (EC50) in the experiment listed under Rattus norvegicus [2] of 17.8 nM.
Taken in the same sequence, the figures for `CC1(C)C=C(c2cccc[n+]2[O-])c2cc(C#N)ccc2O1` were 78.2% and 24.5 nM.
For `N#C[N-][n+]1ccccc1C1=CC(CF)(CF)Oc2ccc(C#N)cc21`, in that order: 76.9% and 51.3 nM.
In turn, `CC(=O)[N-][n+]1ccccc1C1=CC(CF)(CF)Oc2ccc([N+](=O)[O-])cc21` gave an EC50 in the experiment listed under Rattus norvegicus [2] above 10000 nM.
Regarding `CS(=O)(=O)[N-][n+]1ccccc1C1=CC(CF)(CF)Oc2ccc([N+](=O)[O-])cc21`, the Intrinsic activity in the experiment filed under Rattus norvegicus [1] is 74.2%. The same compound gave a concentration for a half-maximal effect (EC50) in the experiment filed under Rattus norvegicus [2] of 3020 nM.
For `CC1(C)Oc2ccc(C#N)cc2[C@@H](N2CCCC2=O)[C@@H]1O` [LEVCROMAKALIM], in that order: 72.5% and 162 nM.
